# From patent US9988644B2, “Compounds for improved viral transduction” (bluebird bio, Inc., priority 2011, dated 2018)
# Tests used:
# CD34+ cells [1] = experiment: 7-Day liquid culture, FACS for GFP after transduction with GFP+ lentivirus in presence of dmPGE2; type: cell-based, human; conditions: for % Positive (GFP): ~1 week in culture
# Experimental: (§1) One vial of CD34+ cells (AllCells) were thawed by incubating at 37° C. for 1-2 minutes and contents were transferred to 10 mL Stem Cell Growth Media (hereafter referred to as SCGM) in a 15-mL conical tube. Cells were spun for 5 minutes at 1500 RPM in a standard tabletop centrifuge, resuspended in 10 mL SCGM and counted on a hemacytometer. A volume correlating with an appropriate number of cells was transferred to a fresh 15-mL conical tube, and again spun for 5 minutes at 1500 RPM. Cells were resuspended to the desired cell concentration in SCGM+1× cytokines (100 ng/mL SCF, 100 ng/mL TPO, 100 ng/mL FltL, and 30 ng/mL IL-3), and plated on a sterile non-adherent surface at 37° C. in a standard humidified tissue culture incubator (5% CO2).
# (§2) Pre-stimulated cells (Example 1) were counted after 18-24 hours of culture. The cells were collected and spun for 5 minutes at 1500 RPM. 1.2×10^6 pre-stimulated CD34^+ cells were resuspended in 60 uL 10× cytokines (1000 ng/mL SCF, 1000 ng/mL TPO, 1000 ng/mL FltL, and 300 ng/mL IL-3), 7.8 uL protamine sulfate, 111 uL viral supernatant, and 361.2 uL SCGM. 90 uL cell/virus suspension (about 200,000 cells) was added to each well of a standard non-adherent 96-well plate. dmPGE2 was added during this viral transduction step at a final concentration of 100 uM, 50 uM, 25 uM, 12.5 uM, 1 uM, or 0 uM.
# (§3) Aliquots of 10 mM dmPGE2 in DMSO were prepared from 1 mg previously processed dmPGE2 (Cayman Chemicals). Briefly, air was pipetted into the vial of dmPGE2 until methyl acetate was evaporated. 263 uL DMSO was added to the PGE2 remaining in the vial, and aliquots of 25 uL were added to 1.5 mL Eppendorf tubes and stored at −80° C. 10× working stock solutions were prepared by serial dilution of dmPGE2 in SCGM, and were then added to cells at appropriate working concentrations, according to Table 2. Cells were then incubated at 37° C. in a standard humidified tissue culture incubator (5% CO2).
# (§4) After 24 hours of culture with virus and dmPGE2, cells were washed prior to subsequent functional validation assays. Washing was performed by transferring cells to a 96-well U-bottom plate and spinning for 5 minutes at 1500 RPM in a standard tabletop centrifuge. Media was aspirated and cells were resuspended in 200 uL SCGM. Cells were spun again for 5 minutes at 1500 RPM and media was aspirated. Cells were again resuspended in 200 uL SCGM then spun for 5 minutes at 1500 RPM, and again the media was aspirated. Particular functional validation assays are described below.
# (§5) Washed cells were resuspended in 200 uL SCGM+1× cytokines (as described in Example 1) and transferred to a standard 12-well non-adherent tissue culture plate containing an additional 800 uL SCGM+1× cytokines Cells were maintained for an additional 6 days in a standard humidified tissue culture incubator (5% CO2) and then subjected Vector Copy Number analysis (Example 5) and FACS analysis. For FACS analysis, cells were assayed for the presence of a virally-encoded transgene, green fluorescent protein (GFP). The frequency of the virally-labeled cells within the pool of cultured cells was quantified as the frequency of GFP+ cells within the population. The mean fluorescence intensity of labeled cells was quantified.
# Tables 3A-C indicate the dose-response of dmPGE2 in promoting viral transduction of CD34+ cells for three separate experiments. CD34+ cells were thawed and pre-stimulated with SCF, TPO, FltL, and IL3, then transduced (A) with GFP+ lentivirus at a multiplicity of infection of 25, (B) with GFP+ lentivirus at a multiplicity of infection of 5, or (C) transduced with an ALD (ABCD1)-expressing lentivirus at a multiplicity of infection of 25. Cells were exposed to dmPGE2 during the viral transduction step (24-48 hours of culture). Cells were then washed and analyzed by flow cytometry and PCR after approximately 1 week in culture. […]
# CD34+ cells [2] = experiment: FACS staining for ALD after transduction with ALD (ABCD1)-expressing lentivirus in presence of dmPGE2; type: cell-based, human; conditions: ABCD1 MOI 25
# Experimental: as §1, §2, §3, §4, §5
# Tables 3A-C indicate the dose-response of dmPGE2 in promoting viral transduction of CD34+ cells for three separate experiments. […] Cells were then washed and analyzed by flow cytometry and PCR after approximately 1 week in culture. […]
smiles,measurement,setting,value
"CCCCC(C)(C)[C@H](O)/C=C/[C@H]1[C@H](O)CC(=O)[C@@H]1C/C=C\CCCC(=O)O [dmPGE2, 16,16-dimethyl PGE2]",% Positive (GFP),"CD34+ cells [1]; dmPGE2 12.5 uM during transduction (24-48 hours of culture), GFP MOI 5",17.84%
same,% Positive (GFP),"CD34+ cells [1]; dmPGE2 12.5 uM during transduction (24-48 hours of culture), GFP MOI 25",54.71%
same,MFI (mean fluorescent intensity),"CD34+ cells [1]; dmPGE2 12.5 uM during transduction, GFP MOI 5","530,218.50"
same,MFI (mean fluorescent intensity),"CD34+ cells [1]; dmPGE2 12.5 uM during transduction, GFP MOI 25","759,442.75"
same,% Positive (GFP),"CD34+ cells [1]; dmPGE2 25 uM during transduction (24-48 hours of culture), GFP MOI 5",18.69%
same,% Positive (GFP),"CD34+ cells [1]; dmPGE2 25 uM during transduction (24-48 hours of culture), GFP MOI 25",59.99%
same,MFI (mean fluorescent intensity),"CD34+ cells [1]; dmPGE2 25 uM during transduction, GFP MOI 5","562,428.00"
same,% Positive (GFP),"CD34+ cells [1]; dmPGE2 50 uM during transduction (24-48 hours of culture), GFP MOI 5",36.80%
same,% Positive (GFP),"CD34+ cells [1]; dmPGE2 50 uM during transduction (24-48 hours of culture), GFP MOI 25",67.62%
same,MFI (mean fluorescent intensity),"CD34+ cells [1]; dmPGE2 50 uM during transduction, GFP MOI 5","656,703.50"
same,MFI (mean fluorescent intensity),"CD34+ cells [1]; dmPGE2 50 uM during transduction, GFP MOI 25","977,806.75"
same,% Positive (GFP),"CD34+ cells [1]; dmPGE2 100 uM during transduction (24-48 hours of culture), GFP MOI 5",42.97%
same,% Positive (GFP),"CD34+ cells [1]; dmPGE2 100 uM during transduction (24-48 hours of culture), GFP MOI 25",81.53%
same,MFI (mean fluorescent intensity),"CD34+ cells [1]; dmPGE2 100 uM during transduction, GFP MOI 5","732,716.25"
same,MFI (mean fluorescent intensity),"CD34+ cells [1]; dmPGE2 100 uM during transduction, GFP MOI 25","1,513,504.00"
same,% Positive (ALD via FACS staining),CD34+ cells [2]; dmPGE2 1 uM during transduction (24-48 hours of culture),34.13%
same,% Positive (ALD via FACS staining),CD34+ cells [2]; dmPGE2 12.5 uM during transduction (24-48 hours of culture),45.36%
same,% Positive (ALD via FACS staining),CD34+ cells [2]; dmPGE2 25 uM during transduction (24-48 hours of culture),43.76%
same,% Positive (ALD via FACS staining),CD34+ cells [2]; dmPGE2 50 uM during transduction (24-48 hours of culture),56.10%
same,% Positive (ALD via FACS staining),CD34+ cells [2]; dmPGE2 100 uM during transduction (24-48 hours of culture),72.26%
